Experimental data: patent US3959256A
Converted amounts (≈) assume the structure as drawn. Like-named read-outs stand apart in the source and are kept apart here.

Tests used:
[1] = test system: mice; assay: Acute toxicity in mice, intraperitoneal; conditions: 3,000 mg/kg intraperitoneally; one week after dosing; 3 mice per group
[2] = test system: Staphylococcus aureus Smith; assay: Minimum inhibitory concentration, standard serial dilution method; assay type: cell-based; conditions: read-out: Minimum Inhibitory Concentrations
[3] = test system: Streptococcus faecalis ATCC 8043; assay: as above; assay type: cell-based; conditions: Enterococcus faecalis, read-out: Minimum Inhibitory Concentrations
[4] = test system: Streptococcus pyogenes D-58; assay: as above; assay type: cell-based; conditions: read-out: Minimum Inhibitory Concentrations
[5] = test system: Staphylococcus aureus Terajima; assay: as above; assay type: cell-based; conditions: read-out: Minimum Inhibitory Concentrations
[6] = test system: Diplococcus pneumoniae Type I; assay: as above; assay type: cell-based; conditions: Streptococcus pneumoniae, read-out: Minimum Inhibitory Concentrations
[7] = test system: Streptococcus hemolyticus Cook; assay: as above; assay type: cell-based; conditions: Streptococcus pyogenes, read-out: Minimum Inhibitory Concentrations
[8] = test system: Staphylococcus aureus 209P; assay: as above; assay type: cell-based; conditions: Brain Heart Infusion broth, 37°C, 24 hours, read-out: Minimum Inhibitory Concentrations
Experimental: (§1) The minimum inhibitory concentrations of these compounds to various microorganisms were determined according to a standard serial dilution method using Brain Heart Infusion broth as the incubation medium at 37°C, the estimation of the growth of the microorganisms being effected after 24 hours' incubation.

[9] = test system: Diplococcus pneumoniae Type III; assay: as above; assay type: cell-based; conditions: Streptococcus pneumoniae, Brain Heart Infusion broth, 37°C, 24 hours, read-out: Minimum Inhibitory Concentrations
Experimental: as §1

[10] = test system: Streptococcus hemolyticus D-90; assay: as above; assay type: cell-based; conditions: Streptococcus pyogenes, D90, Brain Heart Infusion broth, 37°C, 24 hours, read-out: Minimum Inhibitory Concentrations
Experimental: as §1

[11] = test system: Bacillus subtilis ATCC 6633; assay: as above; assay type: cell-based; conditions: read-out: Minimum Inhibitory Concentrations
[12] = test system: Bacillus subtilis PCI 219; assay: as above; assay type: cell-based; conditions: read-out: Minimum Inhibitory Concentrations
[13] = test system: Bacillus anthracis No.119; assay: microbe, parasite or virus in culture; assay type: cell-based; conditions: NO.119, 24 h, read-out: Minimum Inhibitory Concentrations
[14] = test system: Corynebacterium diphtheriae Type gravis; assay: Minimum inhibitory concentration, standard serial dilution method; assay type: cell-based; conditions: read-out: Minimum Inhibitory Concentrations
[15] = test system: Sarcina lutea; assay: as above; assay type: cell-based; conditions: Micrococcus luteus, read-out: Minimum Inhibitory Concentrations
[16] = test system: Staphylococcus albus 1200A; assay: as above; assay type: cell-based; conditions: read-out: Minimum Inhibitory Concentrations
[17] = test system: Corynebacterium diphtheriae Type intermedius; assay: as above; assay type: cell-based; conditions: read-out: Minimum Inhibitory Concentrations
[18] = test system: Staphylococcus aureus; assay: Curative effect in therapeutic treatment of Staphylococcus aureus infections in mice; conditions: oral, immediately after intraperitoneal inoculation, 7th day, 10 mice per group
[19] = Streptococcus pyogenes, D58, 24 h
[20] = Staphylococcus aureus Terajima, Brain Heart Infusion broth, 37°C, 24 hours
[21] = Diplococcus pneumoniae Type I, Brain Heart Infusion broth, 37°C, 24 hours
[22] = Streptococcus hemolyticus Cook, Brain Heart Infusion broth, 37°C, 24 hours
[23] = ATCC6633, Bacillus subtilis ATCC 6633, Brain Heart Infusion broth, 37°C, 24 hours
[24] = PCI219, Bacillus subtilis PCI 219, Brain Heart Infusion broth, 37°C, 24 hours
[25] = Corynebacterium diphtheriae Type gravis, Brain Heart Infusion broth, 37°C, 24 hours
[26] = Sarcina lutea, Brain Heart Infusion broth, 37°C, 24 hours
[27] = Corynebacterium diphtheriae Type intermedius, Brain Heart Infusion broth, 37°C, 24 hours
[28] = Corynebacterium diphtheriae, 24 h

Compound: CCC(=O)OC1CC(=O)OC(C)CC=CC=CC(OC(C)=O)C(C)CC(CC=O)C(OC2OC(C)C(OC3CC(C)(OCOC(C)=O)C(OC(=O)CC)C(C)O3)C(N(C)C)C2O)C1OC (stereo not shown) [9-O-acetyl-3"-O-acetoxymethyl-SF-837, 9-O-acetyl-3"-O-acetoxymethyl-SF-837 substance]
- Rate of the sacrificed mice (average) [1]: 0/3
- MIC ([2]; Staphylococcus aureus, 24 h): 1.56 µg/mL (≈ 1.68 µM)
- MIC ([3]; ATCC8043, 24 h): 1.56 µg/mL (≈ 1.68 µM)
- MIC [4, 19]: 1.56 µg/mL (≈ 1.68 µM)
- MIC [5, 20]: 3.13 µg/mL (≈ 3.37 µM)
- MIC [6, 21]: 0.19 µg/mL (≈ 0.205 µM)
- MIC [7, 22]: 0.19 µg/mL (≈ 0.205 µM)
- MIC [8]: 1.56 µg/mL (≈ 1.68 µM)
- MIC [9]: 1.56 µg/mL (≈ 1.68 µM)
- MIC [10]: 1.56 µg/mL (≈ 1.68 µM)
- MIC [11, 23]: 0.78 µg/mL (≈ 0.84 µM)
- MIC [12, 24]: 0.78 µg/mL (≈ 0.84 µM)
- MIC [13]: 1.56 µg/mL (≈ 1.68 µM)
- MIC [14, 25]: 0.19 µg/mL (≈ 0.205 µM)
- MIC [15, 26]: 0.19 µg/mL (≈ 0.205 µM)
- MIC ([16]; Staphylococcus, 1200A, 24 h): 1.56 µg/mL (≈ 1.68 µM)
- MIC [17, 27]: 0.19 µg/mL (≈ 0.205 µM)

Compound: CCC(=O)OCOC1(C)CC(OC2C(C)OC(OC3C(CC=O)CC(C)C(OC(C)=O)C=CC=CCC(C)OC(=O)CC(OC(=O)CC)C3OC)C(O)C2N(C)C)OC(C)C1OC(=O)CC (stereo not shown) [9-O-acetyl-3"-O-propionyloxymethyl-SF-837 substance]
- Rate of the sacrificed mice (average) [1]: 0/3
- MIC ([2]; Staphylococcus aureus, 24 h): 1.56 µg/mL (≈ 1.66 µM)
- MIC ([3]; ATCC8043, 24 h): 1.56 µg/mL (≈ 1.66 µM)
- MIC [4, 19]: 1.56 µg/mL (≈ 1.66 µM)
- MIC [5, 20]: 3.13 µg/mL (≈ 3.32 µM)
- MIC [6, 21]: 0.19 µg/mL (≈ 0.202 µM)
- MIC [7, 22]: 0.19 µg/mL (≈ 0.202 µM)
- MIC [8]: 1.56 µg/mL (≈ 1.66 µM)
- MIC [9]: 1.56 µg/mL (≈ 1.66 µM)
- MIC [10]: 1.56 µg/mL (≈ 1.66 µM)
- Rate of Surviving Mice (in percentage) ([18]; 100 mg/kg): 67 percentage
- Rate of Surviving Mice (in percentage) ([18]; 200 mg/kg): 100 percentage
- Rate of Surviving Mice (in percentage) ([18]; 400 mg/kg): 100 percentage
- MIC [11, 23]: 0.78 µg/mL (≈ 0.828 µM)
- MIC [12, 24]: 0.39 µg/mL (≈ 0.414 µM)
- MIC [13]: 1.56 µg/mL (≈ 1.66 µM)
- MIC [14, 25]: 0.19 µg/mL (≈ 0.202 µM)
- MIC [15, 26]: 0.19 µg/mL (≈ 0.202 µM)
- MIC ([16]; Staphylococcus, 1200A, 24 h): 1.56 µg/mL (≈ 1.66 µM)
- MIC [17, 27]: 0.19 µg/mL (≈ 0.202 µM)

Compound: CCC(=O)OC1C=CC=CCC(C)OC(=O)CC(OC(=O)CC)C(OC)C(OC2OC(C)C(OC3CC(C)(OCOC(C)=O)C(OC(=O)CC)C(C)O3)C(N(C)C)C2O)C(CC=O)CC1C (stereo not shown) [9-O-propionyl-3"-O-acetoxymethyl-SF-837, 9-O-propionyl-3"-O-acetoxymethyl-SF-837 substance]
- Rate of the sacrificed mice (average) [1]: 0/3
- MIC ([2]; Staphylococcus aureus Smith, Brain Heart Infusion broth, 37°C, 24 hours): 3.13 µg/mL (≈ 3.32 µM)
- MIC ([3]; ATCC8043, 24 h): 1.56 µg/mL (≈ 1.66 µM)
- MIC ([4]; D58, Streptococcus pyogenes D-58, Brain Heart Infusion broth, 37°C, 24 hours): 3.13 µg/mL (≈ 3.32 µM)
- MIC [5, 20]: 3.13 µg/mL (≈ 3.32 µM)
- MIC [6, 21]: 0.19 µg/mL (≈ 0.202 µM)
- MIC [7, 22]: 0.19 µg/mL (≈ 0.202 µM)
- MIC [8]: 1.56 µg/mL (≈ 1.66 µM)
- MIC [9]: 1.56 µg/mL (≈ 1.66 µM)
- MIC [10]: 1.56 µg/mL (≈ 1.66 µM)
- Rate of Surviving Mice (in percentage) ([18]; 100 mg/kg): 33 percentage
- Rate of Surviving Mice (in percentage) ([18]; 200 mg/kg): 56 percentage
- Rate of Surviving Mice (in percentage) ([18]; 400 mg/kg): 100 percentage
- MIC [11, 23]: 0.78 µg/mL (≈ 0.828 µM)
- MIC [12, 24]: 0.78 µg/mL (≈ 0.828 µM)
- MIC [13]: 1.56 µg/mL (≈ 1.66 µM)
- MIC [14, 25]: 0.19 µg/mL (≈ 0.202 µM)
- MIC [15, 26]: 0.19 µg/mL (≈ 0.202 µM)
- MIC ([16]; Staphylococcus, 1200A, 24 h): 1.56 µg/mL (≈ 1.66 µM)
- MIC [17, 27]: 0.19 µg/mL (≈ 0.202 µM)

Compound: CCC(=O)OCOC1(C)CC(OC2C(C)OC(OC3C(CC=O)CC(C)C(OC(=O)CC)C=CC=CCC(C)OC(=O)CC(OC(=O)CC)C3OC)C(O)C2N(C)C)OC(C)C1OC(=O)CC (stereo not shown) [9-O-propionyl-3"-O-propionyloxymethyl-SF-837 substance]
- Rate of the sacrificed mice (average) [1]: 0/3
- MIC ([2]; Staphylococcus aureus, 24 h): 1.56 µg/mL (≈ 1.63 µM)
- MIC ([3]; ATCC8043, Streptococcus faecalis ATCC 8043, Brain Heart Infusion broth, 37°C, 24 hours): 3.13 µg/mL (≈ 3.27 µM)
- MIC [4, 19]: 1.56 µg/mL (≈ 1.63 µM)
- MIC [5, 20]: 3.13 µg/mL (≈ 3.27 µM)
- MIC [6, 21]: 0.19 µg/mL (≈ 0.199 µM)
- MIC ([7]; 24 h): 1.56 µg/mL (≈ 1.63 µM)
- MIC [8]: 1.56 µg/mL (≈ 1.63 µM)
- MIC [9]: 1.56 µg/mL (≈ 1.63 µM)
- MIC [10]: 1.56 µg/mL (≈ 1.63 µM)
- Rate of Surviving Mice (in percentage) ([18]; 100 mg/kg): 33 percentage
- Rate of Surviving Mice (in percentage) ([18]; 200 mg/kg): 56 percentage
- Rate of Surviving Mice (in percentage) ([18]; 400 mg/kg): 100 percentage
- MIC [11, 23]: 0.78 µg/mL (≈ 0.816 µM)
- MIC [12, 24]: 0.78 µg/mL (≈ 0.816 µM)
- MIC [13]: 1.56 µg/mL (≈ 1.63 µM)
- MIC [14, 25]: 0.19 µg/mL (≈ 0.199 µM)
- MIC [15, 26]: 0.19 µg/mL (≈ 0.199 µM)
- MIC ([16]; Staphylococcus albus 1200A, Brain Heart Infusion broth, 37°C, 24 hours): 3.13 µg/mL (≈ 3.27 µM)
- MIC [17, 27]: 0.19 µg/mL (≈ 0.199 µM)

Compound: CCC(=O)OC1CC(=O)OC(C)CC=CC=CC(O)C(C)CC(CC=O)C(OC2OC(C)C(OC3CC(C)(O)C(OC(=O)CC)C(C)O3)C(N(C)C)C2O)C1OC (stereo not shown) [SF-837 (the free base), reference compound]
- Rate of the sacrificed mice (average) [1]: 3/3
- MIC ([2]; Staphylococcus aureus, 24 h): 0.19 µg/mL (≈ 0.233 µM)
- MIC ([3]; ATCC8043, 24 h): 1.56 µg/mL (≈ 1.92 µM)
- MIC [4, 19]: 0.09 µg/mL (≈ 0.111 µM)
- MIC ([5]; Staphylococcus aureus, 24 h): 1.56 µg/mL (≈ 1.92 µM)
- MIC ([6]; 24 h): 0.04 µg/mL (≈ 0.0491 µM)
- MIC ([7]; 24 h): 0.09 µg/mL (≈ 0.111 µM)
- MIC [8]: 0.78 µg/mL (≈ 0.958 µM)
- MIC [9]: 0.04 µg/mL (≈ 0.0491 µM)
- MIC [10]: 1.56 µg/mL (≈ 1.92 µM)
- Rate of Surviving Mice (in percentage) ([18]; 100 mg/kg): 0 percentage
- Rate of Surviving Mice (in percentage) ([18]; 200 mg/kg): 45 percentage
- Rate of Surviving Mice (in percentage) ([18]; 400 mg/kg): 67 percentage
- MIC ([11]; Bacillus subtilis, ATCC6633, 24 h): 1.56 µg/mL (≈ 1.92 µM)
- MIC ([12]; Bacillus subtilis, PCI219, 24 h): 0.78 µg/mL (≈ 0.958 µM)
- MIC [13]: 0.78 µg/mL (≈ 0.958 µM)
- MIC [14, 28]: 0.19 µg/mL (≈ 0.233 µM)
- MIC ([15]; 24 h): 0.09 µg/mL (≈ 0.111 µM)
- MIC ([16]; Staphylococcus, 1200A, 24 h): 0.78 µg/mL (≈ 0.958 µM)
- MIC [17, 28]: 0.19 µg/mL (≈ 0.233 µM)
